This note sets out measurements from patent US12098145B2 (Libra Therapeutics, Inc., priority 2022, dated 2024).

This assay deals with T1, TRPML1 (Homo sapiens, UniProt Q9GZU1).
T1 construct: expressed in transfected cells; host or cells: HEK T-REx cells stably expressing GCaMP6f and TRPML1
Put plainly: Cellular TRPML1 assay (FLIPR, GCaMP6f calcium read-out). The following applies: HEKT-REx/GCaMP6f/TRPML1 cells, FLIPR TETRA, kinetic response over 300 seconds; for EC50: read-out: TRPML1 FLIPR pEC50 (converted). The format is cell-based. In a few lines: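 Read-out is GCaMP6f fluorescence over 300 s after compound addition in Ca2+-free Tyrode's buffer, final DMSO 0.5%, on FLIPR Tetra. Cells are HEK T-REx stably co-expressing the indicator and TRPML1, plated 24 h earlier in Optimem + 0.5% FBS and pre-incubated ~10 min at room temperature.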

T1 sequence (Q9GZU1 whole entry): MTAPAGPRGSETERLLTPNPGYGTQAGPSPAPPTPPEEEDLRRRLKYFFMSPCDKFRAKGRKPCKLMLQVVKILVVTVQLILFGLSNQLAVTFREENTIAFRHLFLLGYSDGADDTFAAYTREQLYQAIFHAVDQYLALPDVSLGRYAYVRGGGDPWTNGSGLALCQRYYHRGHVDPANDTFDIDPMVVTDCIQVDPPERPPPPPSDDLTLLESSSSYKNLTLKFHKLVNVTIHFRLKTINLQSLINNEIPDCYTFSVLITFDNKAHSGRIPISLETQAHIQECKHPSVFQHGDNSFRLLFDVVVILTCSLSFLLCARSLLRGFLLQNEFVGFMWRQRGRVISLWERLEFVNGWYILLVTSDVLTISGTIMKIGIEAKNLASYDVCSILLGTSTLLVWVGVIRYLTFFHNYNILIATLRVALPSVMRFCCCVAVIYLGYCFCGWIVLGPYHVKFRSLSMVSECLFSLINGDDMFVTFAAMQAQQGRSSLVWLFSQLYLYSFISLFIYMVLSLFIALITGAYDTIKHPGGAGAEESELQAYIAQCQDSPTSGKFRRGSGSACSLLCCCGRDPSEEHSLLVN

Consider `CCCc1oc(N2CCCC2)nc1C(=O)Nc1ccc(OC2CCCC2(F)F)c(F)c1` (stereo not shown) [Example 110, N-(4-((2,2-difluorocyclopentyl)oxy)-3-fluorophenyl)-5-propyl-2-(pyrrolidin-1-yl)oxazole-4-carboxamide], for which the EC50 is 1000 to 10000 nM.

In the case of `Cc1oc(-n2cccc2)nc1C(=O)Nc1ccc(N2CCCCC2)c(F)c1` [Example 113, N-(3-fluoro-4-(piperidin-1-yl)phenyl)-5-methyl-2-(1H-pyrrol-1-yl)oxazole-4-carboxamide], the EC50 is 1000 to 10000 nM.

Regarding `Cc1oc(N2CCCCC2)nc1C(=O)Nc1ccc(N2CCCCC2)c(F)c1` [Example 114, N-(3-fluoro-4-(piperidin-1-yl)phenyl)-5-methyl-2-(piperidin-1-yl)oxazole-4-carboxamide], the EC50 was 10000 to 100000 nM.

Regarding `Cc1oc(N(C)C(C)C)nc1C(=O)Nc1ccc(N2CCCCC2)c(F)c1` [Example 115, N-(3-fluoro-4-(piperidin-1-yl)phenyl)-2-(isopropyl(methyl)amino)-5-methyloxazole-4-carboxamide], the EC50 is 10000 to 100000 nM.

For `Cc1oc(N(C)C)nc1C(=O)Nc1ccc(N2CCCCC2)c(F)c1` [Example 117, 2-(dimethylamino)-N-(3-fluoro-4-(piperidin-1-yl)phenyl)-5-methyloxazole-4-carboxamide], the EC50 is 10000 to 100000 nM.

`Cc1oc(N2CCCC2C)nc1C(=O)Nc1ccc(N2CCCCC2)c(F)c1` (stereo not shown) [Example 119, N-(3-fluoro-4-(piperidin-1-yl)phenyl)-5-methyl-2-(2-methylpyrrolidin-1-yl)oxazole-4-carboxamide]: the EC50 is 1000 to 10000 nM.

`Cc1oc(N2CCC(F)(F)C2)nc1C(=O)Nc1ccc(N2CCCCC2)c(F)c1` [Example 121, 2-(3,3-difluoropyrrolidin-1-yl)-N-(3-fluoro-4-(piperidin-1-yl)phenyl)-5-methyloxazole-4-carboxamide]: the “TRPML1 FLIPR pEC50” value is listed as “C (C = 5.0-4.0)”.

As for `Cc1oc(N2CCC(C)C2)nc1C(=O)Nc1ccc(N2CCCCC2)c(F)c1` (stereo not shown) [Example 122, N-(3-fluoro-4-(piperidin-1-yl)phenyl)-5-methyl-2-(3-methylpyrrolidin-1-yl)oxazole-4-carboxamide], the EC50 was 10000 to 100000 nM.

As for `Cc1oc(N2C[C@H]3CCO[C@H]3C2)nc1C(=O)Nc1ccc(N2CCCCC2)c(F)c1` [Example 123, N-(3-fluoro-4-(piperidin-1-yl)phenyl)-2-((3aR,6aR)-hexahydro-5H-furo[2,3-c]pyrrol-5-yl)-5-methyloxazole-4-carboxamide], the EC50 is 1000 to 10000 nM.

`CCC1(CC)CN(c2nc(C(=O)Nc3cc(F)c(OC4CCCC5(CC5)C4)c(F)c3)c(CC(F)(F)F)o2)C1` (stereo not shown) [Example 132, 2-(3,3-diethylazetidin-1-yl)-N-(3,5-difluoro-4-(spiro[2.5]octan-5-yloxy)phenyl)-5-(2,2,2-trifluoroethyl)oxazole-4-carboxamide]: the EC50 is 1000 to 10000 nM.

For `COC1(C)CN(c2nc(C(=O)Nc3ccc(OC4CC5CCC(C4)O5)c(F)c3)c(CC(F)(F)F)o2)C1` (stereo not shown) [Example 133, N-(4-((8-oxabicyclo[3.2.1]octan-3-yl)oxy)-3-fluorophenyl)-2-(3-methoxy-3-methylazetidin-1-yl)-5-(2,2,2-trifluoroethyl)oxazole-4-carboxamide], the EC50 was 1000 to 10000 nM.

For `CCC1(CC)CN(c2nc(C(=O)Nc3cc(F)c(OC4CCCC5(CCC5)C4)c(F)c3)c(CC(F)(F)F)o2)C1` (stereo not shown) [Example 134, 2-(3,3-diethylazetidin-1-yl)-N-(3,5-difluoro-4-(spiro[3.5]nonan-6-yloxy)phenyl)-5-(2,2,2-trifluoroethyl)oxazole-4-carboxamide], the EC50 was 1000 to 10000 nM.

In the case of `O=C(Nc1cc(F)c(OCC23CC(C2)C3)c(F)c1)c1nc(N2CCCC2)oc1CC(F)(F)F` [Example 136, N-(4-(bicyclo[1.1.1]pentan-1-ylmethoxy)-3,5-difluorophenyl)-2-(pyrrolidin-1-yl)-5-(2,2,2-trifluoroethyl)oxazole-4-carboxamide], the EC50 is 10 to 1000 nM.

Take `CCC1(CC)CN(c2nc(C(=O)Nc3cc(F)c(OC4CCCOC4)c(F)c3)c(CC(F)(F)F)o2)C1` (stereo not shown) [Example 137, 2-(3,3-diethylazetidin-1-yl)-N-(3,5-difluoro-4-((tetrahydro-2H-pyran-3-yl)oxy)phenyl)-5-(2,2,2-trifluoroethyl)oxazole-4-carboxamide]: the EC50 was 10 to 1000 nM.

For `O=C(Nc1cc(F)c(OC2CCC3(CC3)C2)c(F)c1)c1nc(N2CCCC2)oc1CC(F)(F)F` (stereo not shown) [Example 138, N-(3,5-difluoro-4-(spiro[2.4]heptan-5-yloxy)phenyl)-2-(pyrrolidin-1-yl)-5-(2,2,2-trifluoroethyl)oxazole-4-carboxamide], the EC50 is 10 to 1000 nM.

In the case of `O=C(Nc1cc(F)c(OC2CC3(CCC3)C2)c(F)c1)c1nc(N2CCCC2)oc1CC(F)(F)F` [Example 139, N-(3,5-difluoro-4-(spiro[3.3]heptan-2-yloxy)phenyl)-2-(pyrrolidin-1-yl)-5-(2,2,2-trifluoroethyl)oxazole-4-carboxamide], the EC50 was 10000 to 100000 nM.

For the compound `O=C(Nc1cc(F)c(OC2CC3CCC2C3)c(F)c1)c1nc(N2CCCC2)oc1CC(F)(F)F` (stereo not shown) [Example 141, N-(4-(bicyclo[2.2.1]heptan-2-yloxy)-3,5-difluorophenyl)-2-(pyrrolidin-1-yl)-5-(2,2,2-trifluoroethyl)oxazole-4-carboxamide], the EC50 was 10 to 1000 nM.

As for `COC1(C)CN(c2nc(C(=O)Nc3ccc(O[C@@H]4C[C@@H]5C[C@@H]5C4)c(C#N)c3)c(CC(F)(F)F)o2)C1` [Example 146, N-(4-(cis-bicyclo[3.1.0]hexan-3-yloxy)-3-cyanophenyl)-2-(3-methoxy-3-methylazetidin-1-yl)-5-(2,2,2-trifluoroethyl)oxazole-4-carboxamide], the EC50 was 1000 to 10000 nM.

For the compound `COCCN(CC(C)C)c1nc(C(=O)Nc2cc(F)c(O[C@@H]3C[C@@H]4C[C@@H]4C3)c(F)c2)c(CC(F)(F)F)o1` [Example 147, N-(4-(cis-bicyclo[3.1.0]hexan-3-yloxy)-3,5-difluorophenyl)-2-(isobutyl(2-methoxyethyl)amino)-5-(2,2,2-trifluoroethyl)oxazole-4-carboxamide], the EC50 was 1000 to 10000 nM.

For the compound `CCC1(OC)CN(c2nc(C(=O)Nc3cc(F)c(OC4C[C@@H]5CC[C@H]4C5)c(F)c3)c(CC(F)(F)F)o2)C1` (stereo partly drawn) [Example 151, N-(4-(((1S,4R)-bicyclo[2.2.1]heptan-2-yl)oxy)-3,5-difluorophenyl)-2-(3-ethyl-3-methoxyazetidin-1-yl)-5-(2,2,2-trifluoroethyl)oxazole-4-carboxamide], the EC50 was 10 to 1000 nM.

Consider `CCCN(CCOC)c1nc(C(=O)Nc2cc(F)c(O[C@@H]3C[C@@H]4C[C@@H]4C3)c(F)c2)c(CC(F)(F)F)o1` [Example 152, N-(4-(cis-bicyclo[3.1.0]hexan-3-yloxy)-3,5-difluorophenyl)-2-((2-methoxyethyl)(propyl)amino)-5-(2,2,2-trifluoroethyl)oxazole-4-carboxamide], for which the EC50 is 10000 to 100000 nM.

Consider `O=C(Nc1ccc(O[C@@H]2CC3C[C@@H]3C2)c(F)c1)c1nc(N2CC3OCOC3C2)oc1CC(F)(F)F` (stereo partly drawn) [Example 153, N-(4-(cis-bicyclo[3.1.0]hexan-3-yloxy)-3-fluorophenyl)-2-(tetrahydro-5H-[1,3]dioxolo[4,5-c]pyrrol-5-yl)-5-(2,2,2-trifluoroethyl)oxazole-4-carboxamide], for which the EC50 was 10 to 1000 nM.

Regarding `CCC1(CC)CN(c2nc(C(=O)Nc3ccc(OC4CCCOC4)c(F)c3)c(CC(F)(F)F)o2)C1` (stereo not shown) [Example 158, 2-(3,3-diethylazetidin-1-yl)-N-(3-fluoro-4-((tetrahydro-2H-pyran-3-yl)oxy)phenyl)-5-(2,2,2-trifluoroethyl)oxazole-4-carboxamide], the EC50 was 10 to 1000 nM.

In the case of `CCC1(OC)CN(c2nc(C(=O)Nc3cc(F)c(OC4CCCOC4)c(F)c3)c(CC(F)(F)F)o2)C1` (stereo not shown) [Example 160, N-(3,5-difluoro-4-((tetrahydro-2H-pyran-3-yl)oxy)phenyl)-2-(3-ethyl-3-methoxyazetidin-1-yl)-5-(2,2,2-trifluoroethyl)oxazole-4-carboxamide], the EC50 was 10 to 1000 nM.

Consider `O=C(Nc1cc(F)c(O[C@@H]2C[C@@H]3C[C@@H]3C2)c(F)c1)c1nc(N2Cc3conc3C2)oc1CC(F)(F)F` [Example 166, N-(4-(cis-bicyclo[3.1.0]hexan-3-yloxy)-3,5-difluorophenyl)-2-(4H-pyrrolo[3,4-c]isoxazol-5(6H)-yl)-5-(2,2,2-trifluoroethyl)oxazole-4-carboxamide], for which the EC50 is 10 to 1000 nM.

Regarding `CCC1(OC)CN(c2nc(C(=O)Nc3cc(F)c(O[C@@H]4C[C@@H]5C[C@@H]5C4)c(F)c3)c(CC(F)(F)F)o2)C1` [Example 167, N-(4-(cis-bicyclo[3.1.0]hexan-3-yloxy)-3,5-difluorophenyl)-2-(3-ethyl-3-methoxyazetidin-1-yl)-5-(2,2,2-trifluoroethyl)oxazole-4-carboxamide], the EC50 was 10 to 1000 nM.

Consider `COCC1(COC)CN(c2nc(C(=O)Nc3cc(F)c(O[C@@H]4C[C@@H]5C[C@@H]5C4)c(F)c3)c(CC(F)(F)F)o2)C1` [Example 168, N-(4-(cis-bicyclo[3.1.0]hexan-3-yloxy)-3,5-difluorophenyl)-2-(3,3-bis(methoxymethyl)azetidin-1-yl)-5-(2,2,2-trifluoroethyl)oxazole-4-carboxamide], for which the EC50 was 10 to 1000 nM.

`O=C(Nc1cc(F)c(OC2CC3CC(C3)C2)c(F)c1)c1nc(N2CCCC2)oc1CC(F)(F)F` (stereo not shown) [Example 169, N-(4-(bicyclo[3.1.1]heptan-3-yloxy)-3,5-difluorophenyl)-2-(pyrrolidin-1-yl)-5-(2,2,2-trifluoroethyl)oxazole-4-carboxamide]: the EC50 is 10 to 1000 nM.
